In data set [1] the target is T1, sigma-2 receptor (Homo sapiens, UniProt Q5BJF2). The settings on record: literature (Perrone 2000; Berardi 1996); cited from earlier work.
Data set [2] addresses T1, sigma-2 receptor. The following applies: literature (Perrone 2000; Berardi 1996); cited from earlier work. This is another data set of the same source.
Data set [3] relates to sigma-2 receptor (affinity chromatography-eluted proteins from SK-N-SH membranes). Put plainly: saturation binding analysis with [3H]-DTG on affinity column-eluted proteins. Details: species or system human. The following applies: [3H]-DTG saturation, FIG. 2A.
Protocol: The samples, containing 400 μg of protein, radioligand, 10 μM of unlabeled DTG to determine nonspecific binding, and 1 μM of (+)-pentazocine to mask the sigma-1 receptors, were brought to equilibrium Into a final volume of 500 μL 50 mM Tris-HCl at pH 8.0 for 120 min at 25° C. At equilibrium, 5 mL buffer (50 mM Tris-HCl, pH 7.4) were added. Samples were filtered on GF/C membranes, acclimatized in 0.5% PEI for 30 min prior to use. Filters were washed twice with the buffer (5 mL). Radioactivity count was performed on a LS-6500 Beckman Scintillation Counter.
Data set [4] concerns the target T1, sigma-2 receptor. Put plainly: sigma-2 receptor affinity. Format: binding.
In data set [5] the target is T1, sigma-2 receptor. Put plainly: sigma-2 receptor activity.
For data set [6], the target named is mixture of the affinity column-eluted histone proteins (sigma-2 receptor). Put plainly: competition binding assay with [3H]-DTG on mixture of affinity column-eluted histone proteins. The settings on record: 20 mcg histone proteins, radioligand [3H]-DTG. On the set-up: species or system human. The method, then:
The formation of a complex was highlighted through an assay in which the histone proteins were suspended in 50 mM Tris pH 8.0. […] At equilibrium, determined by the above-mentioned kinetic studies, the histone/radioligand complex was separated after 120 min by filtration on glass fiber (GF/C) membranes, and quantification of the same was performed by radioactivity count.
The sample was incubated for 120 min at 25° C., then the histone/radioligand complex was rapidly filtered on ø 25 mm GF/C membranes. The filter was washed twice with 3 mL buffer. Scintillation liquid was added and a radioactivity reading was performed. The displacement rate was calculated as difference (%) with respect to the specific binding measures by using 10 μM of DTG.

Data set [7] relates to neuroblastoma or glioma tumour cells. Put plainly: cytotoxicity assay (LDH level). It counts as cell-based. The method, then:
(§1) The antiproliferative assay for compounds was performed by using the MTT assay (Mossman et al. 1983, J. Immunol. Methods 65, pp 55-63). The cytotoxicity assay was performed by measuring the LDH level as reported by Vilner and Bowen 2000, J. Pharmacol. Exp. Ther. 292, pp 408-413. The detailed experimental part is reported in Colabufo et al. 2004, Naunyn Schmiedeberg's Arch. Pharmacol. 370, pp. 106-113.

Data set [8] shares this test system. Put plainly: antiproliferative assay (MTT). It counts as cell-based. As to the method:
as §1

The source of these data is patent US20090017038A1, “Sigma-2 Receptor, Method of Screening of Specific Ligands and Use of the Same in Diagnostic or Therapeutic Methods” (priority 2006, published 2009).

T1 sequence (Q5BJF2 whole entry, species assumed): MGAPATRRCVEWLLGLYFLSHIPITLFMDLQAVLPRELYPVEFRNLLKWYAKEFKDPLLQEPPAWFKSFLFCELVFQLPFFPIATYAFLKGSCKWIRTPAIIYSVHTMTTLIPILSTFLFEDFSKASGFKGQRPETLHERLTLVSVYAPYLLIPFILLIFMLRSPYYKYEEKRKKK

As to `COc1cccc2c1CCCC2CCCN1CCN(C2CCCCC2)CC1` (centres unmarked) [PB28], the “affinity for sigma-2 receptor” value on sigma-2 receptor [1] was “high affinity”. The “agonist activity at sigma-2 receptor” value on sigma-2 receptor [2] is “potent agonist activity”.
For `Cc1ccccc1N=C(N)Nc1ccccc1C` [[^3H]-DTG], in data set [3], the Bmax was 588±50 fmol/mg of protein.
For the compound `COc1ccc(N)c2c1CCCC2CCCN1CCN(C2CCCCC2)CC1` (centres unmarked) [compound 2, 1-cyclohexyl-4-[3-(8-amino-5-methoxy-1,2,3,4-tetrahydronaphtalen-1-yl)propyl]piperazine], on sigma-2 receptor [4], the “affinity of amino-substituted ligand relative to PB28” value is “unmodified”. Moreover, the “sigma-2 activity of amino-substituted ligand relative to PB28” value on sigma-2 receptor [5] was “unmodified”.
Turning to `COc1ccccc1[C@H]1CC[C@H](N2CCN(C3CCCCC3)CC2)CC1` [trans-1-cyclohexyl-4-[4-(2-methoxy-phenyl)cyclohexyl]piperazine], the Ki in data set [6] worked out at 0.068 nM. Further, the cytotoxic activity entry in data set [7] is given as “homogeneous to results reported in literature for the best ligand known to date: the compound PB28”. In addition, in data set [8], the antiproliferative activity entry is “homogeneous to results reported in literature for the best ligand known to date: the compound PB28”.
